Measurements reported in the supplement of paper PMC10307832.

Experiments:
Test in all cases: relative viability (nuclei count vs DMSO), 5 days (fraction); higher = more cells survive
[1] = compound: C1CN(CCC1C(C2=CC3=C(C=C2)OCO3)(C4=CC5=C(C=C4)OCO5)O)C(=O)OC6=CC=C(C=C6)[N+](=O)[O-] [JZL-184] + Cc1nc(NC(=O)N2CCC[C@H]2C(N)=O)sc1-c1ccnc(C(C)(C)C(F)(F)F)c1 [Alpelisib] (partner 2 µM)
Method in brief: (§1)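 After 5 days of treatment, lung cancer cells in 1536-well plates were fixed and stained in a single step (final 0.05% Triton X-100, 1% formaldehyde, 1 ug/ml Hoechst) and their nuclei counted on 4× images. Treatment had been applied by pin tool the day after seeding as one drug alone or as a fixed anchor-drug dose with five library-drug doses (not always all listed) in √10 steps. Relative viability is the nuclei count of treated wells divided by that of vehicle wells, and values are medians of duplicate plates.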

[2] = compound: C1CN(CCC1C(C2=CC3=C(C=C2)OCO3)(C4=CC5=C(C=C4)OCO5)O)C(=O)OC6=CC=C(C=C6)[N+](=O)[O-] [JZL-184] + C[C@@H](Oc1cc(-c2cnn(C3CCNCC3)c2)cnc1N)c1c(Cl)ccc(F)c1Cl [Crizotinib] (partner 1 µM)
Method in brief: as §1

[3] = compound: C1CN(CCC1C(C2=CC3=C(C=C2)OCO3)(C4=CC5=C(C=C4)OCO5)O)C(=O)OC6=CC=C(C=C6)[N+](=O)[O-] [JZL-184] + CS(=O)(=O)N1CCN(Cc2cc3nc(-c4cccc5[nH]ncc45)nc(N4CCOCC4)c3s2)CC1 [Pictilisib] (partner 1 µM)
Method in brief: as §1

[4] = compound: C1CN(CCC1C(C2=CC3=C(C=C2)OCO3)(C4=CC5=C(C=C4)OCO5)O)C(=O)OC6=CC=C(C=C6)[N+](=O)[O-] [JZL-184] + C[C@]1(O)C[C@@H](c2nc(-c3ccc4ccc(-c5ccccc5)nc4c3)c3c(N)nccn32)C1 [Linsitinib] (partner 1 µM)
Method in brief: as §1

[5] = compound: C1CN(CCC1C(C2=CC3=C(C=C2)OCO3)(C4=CC5=C(C=C4)OCO5)O)C(=O)OC6=CC=C(C=C6)[N+](=O)[O-] [JZL-184] + CC(C)C[C@H](NC(=O)[C@H](Cc1ccccc1)NC(=O)c1cnccn1)B(O)O [Bortezomib] (partner 0.002 µM)
Method in brief: as §1

Row | Cell Line | relative viability ([1]; first compound 0.04 µM) | relative viability ([1]; first compound 0.4 µM) | relative viability ([1]; first compound 1.265 µM) | relative viability ([1]; first compound 4 µM) | relative viability ([2]; first compound 0.04 µM) | relative viability ([2]; first compound 0.4 µM) | relative viability ([2]; first compound 1.265 µM) | relative viability ([2]; first compound 4 µM) | relative viability ([3]; first compound 0.04 µM) | relative viability ([3]; first compound 0.4 µM) | relative viability ([3]; first compound 1.265 µM) | relative viability ([3]; first compound 4 µM) | relative viability ([4]; first compound 0.04 µM) | relative viability ([4]; first compound 0.4 µM) | relative viability ([4]; first compound 1.265 µM) | relative viability ([4]; first compound 4 µM) | relative viability ([5]; first compound 0.04 µM) | relative viability ([5]; first compound 0.4 µM) | relative viability ([5]; first compound 1.265 µM) | relative viability ([5]; first compound 4 µM)
1 | NCI-H1563 | 0.934 | 0.964 | 0.899 | 0.914 | 0.931 | 0.903 | 0.868 | 0.88 | 0.673 | 0.676 | 0.669 | 0.675 | 1.24 | 1.31 | 1.21 | 1.09 | 0.79 | 0.797 | 0.86 | 0.933
2 | NCI-H1651 | 1.05 | 0.929 | 1.03 | 0.834 | 0.896 | 0.839 | 0.895 | 0.87 | 0.842 | 0.533 | 0.536 | 0.499 | 0.988 | 0.927 | 0.933 | 0.816 | 0.993 | 0.954 | 1 | 0.999
3 | NCI-H1666 | 1.04 | 0.919 | 1.05 | 1.06 | 1.17 | 0.983 | 0.872 | 0.992 | 0.483 | 0.517 | 0.5 | 0.491 | 0.836 | 0.921 | 0.917 | 0.881 | 0.98 | 0.714 | 0.868 | 0.904
4 | NCI-H1703 | 0.335 | 0.295 | 0.389 | 0.294 | 0.865 | 0.554 | 0.726 | 0.508 | 0.265 | 0.216 | 0.288 | 0.246 | 0.893 | 0.765 | 0.738 | 0.305 | 0.349 | 0.213 | 0.359 | 0.467
5 | NCI-H1734 | 0.658 | 0.545 | 0.714 | 0.642 | 0.806 | 0.617 | 0.672 | 0.701 | 0.519 | 0.471 | 0.505 | 0.482 | 0.852 | 0.796 | 0.898 | 0.86 | 1.03 | 0.842 | 1.02 | 0.884
6 | NCI-H1755 | 0.942 | 0.866 | 0.943 | 0.885 | 0.933 | 0.894 | 0.835 | 0.793 | 0.432 | 0.339 | 0.545 | 0.401 | 0.976 | 1.01 | 1.01 | 0.943 | 1.13 | 0.895 | 0.933 | 0.859
7 | NCI-H1792 | 0.835 | 0.613 | 0.762 | 0.757 | 1.04 | 0.713 | 1 | 0.97 | 0.304 | 0.232 | 0.302 | 0.28 | 0.573 | 0.462 | 0.653 | 0.51 | 1.13 | 0.405 | 0.954 | 0.952
8 | NCI-H1915 | 1.08 | 1.04 | 1.04 | 1.04 | 0.924 | 0.821 | 0.902 | 0.84 | 1.05 | 0.914 | 1.1 | 0.918 | 1.14 | 0.996 | 1.09 | 1.02 | 0.992 | 0.93 | 1.03 | 1.03
9 | NCI-H1975 | 0.751 | 0.673 | 0.642 | 0.577 | 1.11 | 0.901 | 0.995 | 0.975 | 0.347 | 0.281 | 0.304 | 0.287 | 1.04 | 1.04 | 1.02 | 0.896 | 0.361 | 0.419 | 0.358 | 0.336
10 | NCI-H1993 | 0.719 | 0.72 | 0.711 | 0.677 | 0.956 | 0.805 | 0.934 | 0.903 | 0.721 | 0.864 | 0.847 | 0.794 | 0.703 | 0.773 | 0.727 | 0.696 | 1.17 | 1.14 | 1.21 | 1.22
11 | NCI-H2009 | 1.17 | 1.1 | 1.16 | 1.09 | 1.15 | 1.06 | 1.02 | 1.01 | 0.985 | 0.672 | 0.914 | 0.844 | 1.18 | 1.13 | 1.2 | 1.19 | 1.2 | 0.946 | 1.02 | 0.938
12 | NCI-H2023 | 0.654 | 0.593 | 0.568 | 0.593 | 0.726 | 0.626 | 0.671 | 0.578 | 0.27 | 0.22 | 0.301 | 0.241 | 0.664 | 0.756 | 0.757 | 0.522 | 1.03 | 0.947 | 1.01 | 0.865
13 | NCI-H2085 | 0.946 | 0.904 | 0.905 | 0.811 | 0.969 | 0.806 | 0.808 | 0.844 | 0.459 | 0.401 | 0.467 | 0.549 | 0.852 | 0.862 | 1.18 | 0.866 | 0.914 | 1.06 | 1.04 | 0.91
14 | NCI-H2087 | 1.11 | 1.02 | 1.11 | 1.01 | 0.928 | 0.816 | 0.757 | 0.93 | 0.824 | 0.677 | 0.934 | 1 | 1.14 | 0.765 | 0.999 | 0.961 | 0.901 | 0.811 | 0.845 | 0.771
15 | NCI-H2126 | 0.721 | 0.738 | 0.802 | 0.717 | 1.04 | 1.02 | 1.06 | 1.02 | 0.498 | 0.499 | 0.514 | 0.5 | 0.644 | 0.673 | 0.701 | 0.693 | 1.13 | 1.09 | 1.09 | 1.15
16 | NCI-H2228 | 0.894 | 0.726 | 0.709 | 0.789 | 0.543 | 0.442 | 0.517 | 0.511 | 0.235 | 0.311 | 0.309 | 0.518 | 0.642 | 0.892 | 0.636 | 0.616 | 1.1 | 1.01 | 0.995 | 0.835
17 | NCI-H2347 | 1.05 | 1.02 | 1.05 | 1.1 | 0.968 | 0.835 | 0.694 | 0.72 | 0.768 | 0.654 | 0.61 | 0.688 | 0.98 | 0.953 | 0.926 | 0.946 | 1.12 | 0.717 | 1.05 | 0.906
18 | NCI-H2405 | 0.673 | 0.794 | 0.83 | 0.816 | 0.87 | 0.857 | 0.968 | 0.811 | 0.531 | 0.444 | 0.493 | 0.486 | 0.806 | 0.895 | 1.09 | 0.986 | 1.05 | 0.943 | 1.06 | 0.769
19 | NCI-H3122 | 0.751 | 0.813 | 0.646 | 0.804 | 0.27 | 0.237 | 0.282 | 0.323 | 0.678 | 0.602 | 0.59 | 0.581 | 1.03 | 0.949 | 1.03 | 0.971 | 1.01 | 0.93 | 0.982 | 1.03
20 | PC-3 [JPC-3] | 1.09 | 0.961 | 1.05 | 1.01 | 1.02 | 1.03 | 1.01 | 0.974 | 0.773 | 0.735 | 0.773 | 0.738 | 0.955 | 0.936 | 0.973 | 0.905 | 0.988 | 0.895 | 0.835 | 0.801
21 | PC-14 | 0.975 | 0.892 | 0.965 | 0.847 | 0.909 | 0.966 | 0.828 | 0.86 | 0.867 | 0.619 | 0.722 | 0.589 | 1.05 | 0.965 | 0.95 | 0.942 | 0.808 | 0.972 | 0.781 | 0.77
22 | RERF-LC-KJ | 0.753 | 0.761 | 0.837 | 0.804 | 0.844 | 0.75 | 0.856 | 0.742 | 0.508 | 0.513 | 0.676 | 0.47 | 0.874 | 0.854 | 0.867 | 0.873 | 1.15 | 0.96 | 1.11 | 1.04
23 | SK-LU-1 | 1.51 | 0.931 | 1.3 | 1.06 | 1.05 | 0.889 | 1.15 | 1.11 | 0.631 | 0.517 | 0.7 | 0.611 | 1.29 | 1.02 | 1.11 | 1.11 | 0.929 | 1.06 | 1.29 | 1.16
24 | SW 1573 | 0.873 | 0.605 | 0.894 | 0.75 | 0.904 | 0.724 | 0.883 | 0.759 | 0.609 | 0.364 | 0.491 | 0.498 | 0.856 | 0.833 | 0.781 | 0.814 | 1.14 | 0.935 | 1.08 | 0.976
25 | UMC-11 | 1.39 | 0.904 | 0.924 | 0.96 | 0.787 | 0.679 | 0.555 | 0.57 | 1.16 | 0.808 | 0.984 | 0.824 | 1.43 | 0.935 | 1.09 | 0.944 | 0.79 | 0.723 | 0.571 | 0.673
